Measured values reported in US9695155B2, “Herbicidal substituted pyrimidinyloxy benzene compounds” (E. I. DU PONT DE NEMOURS AND COMPANY, priority 2013, dated 2017).

Columns and labels:
barnyardgrass [1] = experiment: Test B flooded paddy test; type: in vivo, Echinochloa crus-galli; details: Flood, 250 g ai/ha; 0 to 100 scale where 0 is no effect and 100 is complete control
Method in brief: (§1)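 Greenhouse flooded-pot test: compounds dosed into 3 cm standing water over 2-leaf plants, flood held constant. Rated visually after 13–15 days on 0–100 (complete control = 100); a dash marks no test result.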

giant foxtail [2] = experiment: Test A preemergence; type: in vivo, Setaria faberii; details: for Plant response rating, Foxtail, Giant: 0 to 100 scale where 0 is no effect and 100 is complete control
Method in brief: (§2)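 Compounds in non-phytotoxic solvent with surfactant applied as soil spray preemergence, or postemergence to plants 2-10 cm at one- to two-leaf stage, in loam/sand. After approximately 10 days in greenhouse, injury rated visually versus untreated controls, 0 (no effect) to 100 (complete control).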

Italian ryegrass [3] = experiment: Test A preemergence; type: in vivo, Lolium multiflorum; details: for Plant response rating, Ryegrass, Italian: 0 to 100 scale where 0 is no effect and 100 is complete control
Method in brief: as §2

pigweed [4] = experiment: Test A preemergence; type: in vivo, Amaranthus retroflexus; details: for Plant response rating, Pigweed: 0 to 100 scale where 0 is no effect and 100 is complete control
Method in brief: as §2

corn = experiment: Test A postemergence; type: in vivo, Zea mays
Method in brief: as §2

Heteranthera limosa = experiment: Test B flooded paddy test; type: in vivo; details: Flood, 250 g ai/ha; 0 to 100 scale where 0 is no effect and 100 is complete control
Method in brief: as §1

kochia [5] = experiment: Test A postemergence; type: in vivo, Kochia scoparia
Method in brief: as §2

wheat = experiment: Test A postemergence; type: in vivo, Triticum aestivum; details: 0 to 100 scale, 0 no effect, 100 complete control
Method in brief: as §2

Italian ryegrass [6] = experiment: Test A postemergence; type: in vivo, Lolium multiflorum; details: 0 to 100 scale, 0 no effect, 100 complete control
Method in brief: as §2

ragweed [7] = experiment: Test A postemergence; type: in vivo, Ambrosia elatior; details: 0 to 100 scale, 0 no effect, 100 complete control
Method in brief: as §2

rice = experiment: Test B flooded paddy test; type: in vivo, Oryza sativa; details: Flood, 250 g ai/ha; 0 to 100 scale where 0 is no effect and 100 is complete control
Method in brief: as §1

pigweed [8] = experiment: Test A postemergence; type: in vivo, Amaranthus retroflexus; details: 0 to 100 scale, 0 no effect, 100 complete control
Method in brief: as §2

ragweed [9] = experiment: Test A preemergence; type: in vivo, Ambrosia elatior; details: for Plant response rating, Ragweed: 0 to 100 scale where 0 is no effect and 100 is complete control
Method in brief: as §2

giant foxtail [10] = experiment: Test A postemergence; type: in vivo, Setaria faberii
Method in brief: as §2

galium = experiment: Test A postemergence; type: in vivo, Galium aparine
Method in brief: as §2

barnyardgrass [11] = experiment: Test A preemergence; type: in vivo, Echinochloa crus-galli; details: for Plant response rating, Barnyardgrass: 0 to 100 scale where 0 is no effect and 100 is complete control
Method in brief: as §2

barnyardgrass [12] = experiment: Test A postemergence; type: in vivo, Echinochloa crus-galli
Method in brief: as §2

blackgrass = experiment: Test A postemergence; type: in vivo, Alopecurus myosuroides
Method in brief: as §2

sedge, umbrella = experiment: Test B flooded paddy test; type: in vivo, Cyperus difformis; details: Flood, 250 g ai/ha; 0 to 100 scale where 0 is no effect and 100 is complete control
Method in brief: as §1

kochia [13] = experiment: Test A preemergence; type: in vivo, Kochia scoparia; details: for Plant response rating, Kochia: 0 to 100 scale where 0 is no effect and 100 is complete control
Method in brief: as §2

[14] = 31 g ai/ha, visual, approximately 10 days
[15] = 31 g ai/ha, 0 to 100 scale, 0 no effect, 100 complete control
[16] = 125 g ai/ha, 0 to 100 scale, 0 no effect, 100 complete control
[17] = 125 g ai/ha, 0 to 100 scale where 0 is no effect and 100 is complete control

## N#Cc1cnn(-c2c(CF)cccc2Oc2ncc(Cl)cn2)c1 [Compound 242]
Barnyardgrass [1]
  Plant response rating, Barnyardgrass: 20
Giant foxtail [2]; [14]
  Plant response rating, Foxtail, Giant: 100
Giant foxtail [2]; 125 g ai/ha
  Foxtail, Giant plant response rating (0 to 100 scale): 100
Italian ryegrass [3]; [14]
  Plant response rating, Ryegrass, Italian: 0
Italian ryegrass [3]; 125 g ai/ha
  Ryegrass, Italian plant response rating (0 to 100 scale): 0
Pigweed [4]; [14]
  Plant response rating, Pigweed: 90
Pigweed [4]; 125 g ai/ha
  Pigweed plant response rating (0 to 100 scale): 100
corn; [15]
  Plant response rating, Corn: 0
corn; [16]
  Plant response rating, Corn: 60
Heteranthera limosa
  Plant response rating, Ducksalad: 70
Kochia [5]; [15]
  Plant response rating, Kochia: 30
Kochia [5]; [16]
  Plant response rating, Kochia: 80
wheat; 31 g ai/ha
  Plant response rating, Wheat: 0
wheat; 125 g ai/ha
  Plant response rating, Wheat: 60
Italian ryegrass [6]; 31 g ai/ha
  Plant response rating, Ryegrass, Italian: 0
Italian ryegrass [6]; 125 g ai/ha
  Plant response rating, Ryegrass, Italian: 30
Ragweed [7]; 31 g ai/ha
  Plant response rating, Ragweed: 20
Ragweed [7]; 125 g ai/ha
  Plant response rating, Ragweed: 50
rice
  Plant response rating, Rice: 0
Pigweed [8]; 31 g ai/ha
  Plant response rating, Pigweed: 30
Pigweed [8]; 125 g ai/ha
  Plant response rating, Pigweed: 80
Ragweed [9]; [14]
  Plant response rating, Ragweed: 50
Ragweed [9]; 125 g ai/ha
  Ragweed plant response rating (0 to 100 scale): 80
Giant foxtail [10]; [15]
  Plant response rating, Foxtail, Giant: 0
Giant foxtail [10]; [16]
  Plant response rating, Foxtail, Giant: 50
galium; [15]
  Plant response rating, Galium: 10
galium; [16]
  Plant response rating, Galium: 30
Barnyardgrass [11]; [14]
  Plant response rating, Barnyardgrass: 20
Barnyardgrass [11]; 125 g ai/ha
  Barnyardgrass plant response rating (0 to 100 scale, 0 is no effect, 100 is complete control): 70
Barnyardgrass [12]; [15]
  Plant response rating, Barnyardgrass: 0
Barnyardgrass [12]; [16]
  Plant response rating, Barnyardgrass: 60
blackgrass; [15]
  Plant response rating, Blackgrass: 30
blackgrass; [16]
  Plant response rating, Blackgrass: 90
sedge, umbrella
  Plant response rating, Sedge, Umbrella: 75
Kochia [13]; [14]
  Plant response rating, Kochia: 30
Kochia [13]; 125 g ai/ha
  Kochia plant response rating (0 to 100 scale): 100

## CC(C)Cc1cn(-c2c(F)cccc2Oc2ncc(Cl)cn2)nn1 [Compound 107]
Barnyardgrass [1]
  Plant response rating, Barnyardgrass: 30
Giant foxtail [2]; 31 g ai/ha
  Foxtail, Giant plant response rating (0 to 100 scale): 30
Giant foxtail [2]; 125 g ai/ha
  Plant response rating, Foxtail, Giant: 80
Italian ryegrass [3]; 31 g ai/ha
  Ryegrass, Italian plant response rating (0 to 100 scale): 0
Italian ryegrass [3]; 125 g ai/ha
  Plant response rating, Ryegrass, Italian: 0
Pigweed [4]; 31 g ai/ha
  Pigweed plant response rating (0 to 100 scale): 0
Pigweed [4]; 125 g ai/ha
  Plant response rating, Pigweed: 50
corn; [15]
  Plant response rating, Corn: 0
corn; [17]
  Plant response rating, Corn: 20
Heteranthera limosa
  Plant response rating, Ducksalad: 40
Kochia [5]; [15]
  Plant response rating, Kochia: 0
Kochia [5]; [17]
  Plant response rating, Kochia: 20
wheat; 31 g ai/ha
  Plant response rating, Wheat: 10
Italian ryegrass [6]; 31 g ai/ha
  Plant response rating, Ryegrass, Italian: 0
Ragweed [7]; 31 g ai/ha
  Plant response rating, Ragweed: 30
rice
  Plant response rating, Rice: 0
Pigweed [8]; 31 g ai/ha
  Plant response rating, Pigweed: 40
Ragweed [9]; 31 g ai/ha
  Ragweed plant response rating (0 to 100 scale): 0
Ragweed [9]; 125 g ai/ha
  Plant response rating, Ragweed: 0
Giant foxtail [10]; [15]
  Plant response rating, Foxtail, Giant: 20
Giant foxtail [10]; [17]
  Plant response rating, Foxtail, Giant: 70
galium; [15]
  Plant response rating, Galium: 30
galium; [17]
  Plant response rating, Galium: 80
Barnyardgrass [11]; 31 g ai/ha
  Barnyardgrass plant response rating (0 to 100 scale): 10
Barnyardgrass [11]; 125 g ai/ha
  Plant response rating, Barnyardgrass: 60
Barnyardgrass [12]; [15]
  Plant response rating, Barnyardgrass: 0
Barnyardgrass [12]; [17]
  Plant response rating, Barnyardgrass: 40
blackgrass; [15]
  Plant response rating, Blackgrass: 10
blackgrass; [17]
  Plant response rating, Blackgrass: 50
sedge, umbrella
  Plant response rating, Sedge, Umbrella: 70
Kochia [13]; 31 g ai/ha
  Kochia plant response rating (0 to 100 scale): 0
Kochia [13]; 125 g ai/ha
  Plant response rating, Kochia: 0
